Measured values published in paper PMC8213057, “Targeting ALK2: An Open Science Approach to Developing Therapeutics for the Treatment of Diffuse Intrinsic Pontine Glioma” (Journal of Medicinal Chemistry, 2020).

Tests used:
ERBB2/HER2 = ERBB2/HER2 (Homo sapiens, UniProt P04626); conditions: 1 μM; Run 1, Run 2
LKB1 = molecular target: T1, LKB1 (Homo sapiens, UniProt Q15831); assay: biochemical; conditions: read-out: % enzyme activity, 1 μM; Run 1, Run 2
T1 sequence (Q15831 1-433): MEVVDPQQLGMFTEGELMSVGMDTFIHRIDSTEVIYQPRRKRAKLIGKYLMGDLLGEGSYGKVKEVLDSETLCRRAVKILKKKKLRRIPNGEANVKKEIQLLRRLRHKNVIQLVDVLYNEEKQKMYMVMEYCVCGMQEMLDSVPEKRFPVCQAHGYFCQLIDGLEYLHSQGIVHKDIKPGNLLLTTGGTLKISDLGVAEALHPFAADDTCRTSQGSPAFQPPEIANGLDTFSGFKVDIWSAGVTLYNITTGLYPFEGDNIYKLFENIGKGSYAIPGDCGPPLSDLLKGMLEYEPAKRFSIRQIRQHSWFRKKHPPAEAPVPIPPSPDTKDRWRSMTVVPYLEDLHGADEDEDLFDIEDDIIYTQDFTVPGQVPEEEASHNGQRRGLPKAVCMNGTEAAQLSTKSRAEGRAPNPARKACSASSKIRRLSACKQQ
T1 sequence (Q7RTN6 1-431 partner): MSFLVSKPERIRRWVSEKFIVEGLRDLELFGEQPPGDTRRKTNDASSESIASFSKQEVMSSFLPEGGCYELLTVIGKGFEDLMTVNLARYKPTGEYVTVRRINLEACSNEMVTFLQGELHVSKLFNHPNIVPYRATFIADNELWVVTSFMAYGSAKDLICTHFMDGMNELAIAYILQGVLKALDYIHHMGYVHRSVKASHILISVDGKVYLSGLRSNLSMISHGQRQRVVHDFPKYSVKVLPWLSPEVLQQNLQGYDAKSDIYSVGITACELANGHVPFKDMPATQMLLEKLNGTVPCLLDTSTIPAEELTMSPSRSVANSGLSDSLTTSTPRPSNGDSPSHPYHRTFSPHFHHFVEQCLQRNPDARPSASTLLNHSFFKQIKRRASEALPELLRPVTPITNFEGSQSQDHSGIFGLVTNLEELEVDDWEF
T1 sequence (Q9Y376 1-341 partner): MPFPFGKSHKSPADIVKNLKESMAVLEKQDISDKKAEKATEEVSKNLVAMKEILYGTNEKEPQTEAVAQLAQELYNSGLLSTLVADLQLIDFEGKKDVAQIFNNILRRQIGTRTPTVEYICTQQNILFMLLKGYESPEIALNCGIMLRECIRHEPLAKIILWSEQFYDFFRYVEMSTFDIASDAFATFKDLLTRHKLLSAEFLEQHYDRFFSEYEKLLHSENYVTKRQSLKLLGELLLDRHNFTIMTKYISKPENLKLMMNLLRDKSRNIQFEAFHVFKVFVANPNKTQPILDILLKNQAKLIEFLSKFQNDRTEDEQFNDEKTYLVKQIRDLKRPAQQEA

MST2/STK3 = molecular target: T2, MST2/STK3 (Homo sapiens, UniProt Q13188); conditions: 1 μM; Run 1, Run 2
T2 sequence (Q13188 1-491): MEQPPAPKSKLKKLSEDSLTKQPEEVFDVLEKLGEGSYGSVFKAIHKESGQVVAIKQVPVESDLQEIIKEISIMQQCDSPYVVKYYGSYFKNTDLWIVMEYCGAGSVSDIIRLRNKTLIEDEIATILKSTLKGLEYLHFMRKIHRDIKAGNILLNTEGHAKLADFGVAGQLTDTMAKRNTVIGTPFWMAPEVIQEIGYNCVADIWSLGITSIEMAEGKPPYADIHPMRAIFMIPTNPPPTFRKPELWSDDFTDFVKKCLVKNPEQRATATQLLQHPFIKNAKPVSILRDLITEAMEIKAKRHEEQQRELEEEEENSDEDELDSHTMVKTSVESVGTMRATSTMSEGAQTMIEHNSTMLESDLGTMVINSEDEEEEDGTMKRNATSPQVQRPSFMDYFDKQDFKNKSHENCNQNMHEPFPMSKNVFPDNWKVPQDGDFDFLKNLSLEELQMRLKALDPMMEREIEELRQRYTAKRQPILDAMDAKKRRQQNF

CDK1/cyclin E = CDK1/cyclin E (Homo sapiens, UniProt P06493); conditions: 1 μM; Run 1, Run 2
Chain of CDK1/cyclin E (P24864 whole entry): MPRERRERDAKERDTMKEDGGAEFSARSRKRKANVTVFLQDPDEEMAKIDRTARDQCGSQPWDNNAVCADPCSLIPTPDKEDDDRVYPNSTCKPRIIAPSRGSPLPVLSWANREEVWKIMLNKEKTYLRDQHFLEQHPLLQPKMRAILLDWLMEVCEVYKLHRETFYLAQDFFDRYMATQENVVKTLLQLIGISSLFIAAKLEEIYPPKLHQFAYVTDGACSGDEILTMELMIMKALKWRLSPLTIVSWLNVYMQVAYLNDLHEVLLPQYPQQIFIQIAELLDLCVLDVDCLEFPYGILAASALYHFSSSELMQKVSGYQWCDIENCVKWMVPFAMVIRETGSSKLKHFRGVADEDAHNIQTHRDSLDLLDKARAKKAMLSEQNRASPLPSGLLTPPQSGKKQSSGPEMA
Chain of CDK1/cyclin E (P06493 whole entry): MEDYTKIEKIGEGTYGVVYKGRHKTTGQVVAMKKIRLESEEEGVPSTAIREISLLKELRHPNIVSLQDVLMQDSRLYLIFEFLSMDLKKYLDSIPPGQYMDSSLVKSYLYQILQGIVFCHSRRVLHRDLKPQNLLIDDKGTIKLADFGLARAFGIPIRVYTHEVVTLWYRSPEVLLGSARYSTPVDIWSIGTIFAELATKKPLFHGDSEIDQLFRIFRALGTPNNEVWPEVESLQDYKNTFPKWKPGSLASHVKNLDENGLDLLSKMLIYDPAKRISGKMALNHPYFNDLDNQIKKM

PHKg2 = molecular target: T3, PHKg2 (Homo sapiens, UniProt P15735); conditions: 1 μM; Run 1, Run 2
T3 sequence (P15735 1-406): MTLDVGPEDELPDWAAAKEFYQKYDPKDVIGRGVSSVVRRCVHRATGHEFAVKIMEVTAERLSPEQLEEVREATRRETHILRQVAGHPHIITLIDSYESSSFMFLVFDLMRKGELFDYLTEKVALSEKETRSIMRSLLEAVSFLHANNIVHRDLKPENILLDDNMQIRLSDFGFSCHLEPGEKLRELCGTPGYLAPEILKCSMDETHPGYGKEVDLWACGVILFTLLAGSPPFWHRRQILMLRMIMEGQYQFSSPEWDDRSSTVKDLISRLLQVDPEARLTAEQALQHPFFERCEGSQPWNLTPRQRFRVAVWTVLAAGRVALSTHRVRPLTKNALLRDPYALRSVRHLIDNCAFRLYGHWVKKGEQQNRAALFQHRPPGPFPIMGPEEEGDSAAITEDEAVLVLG

Chain of ERBB2/HER2 (P04626 23-1255): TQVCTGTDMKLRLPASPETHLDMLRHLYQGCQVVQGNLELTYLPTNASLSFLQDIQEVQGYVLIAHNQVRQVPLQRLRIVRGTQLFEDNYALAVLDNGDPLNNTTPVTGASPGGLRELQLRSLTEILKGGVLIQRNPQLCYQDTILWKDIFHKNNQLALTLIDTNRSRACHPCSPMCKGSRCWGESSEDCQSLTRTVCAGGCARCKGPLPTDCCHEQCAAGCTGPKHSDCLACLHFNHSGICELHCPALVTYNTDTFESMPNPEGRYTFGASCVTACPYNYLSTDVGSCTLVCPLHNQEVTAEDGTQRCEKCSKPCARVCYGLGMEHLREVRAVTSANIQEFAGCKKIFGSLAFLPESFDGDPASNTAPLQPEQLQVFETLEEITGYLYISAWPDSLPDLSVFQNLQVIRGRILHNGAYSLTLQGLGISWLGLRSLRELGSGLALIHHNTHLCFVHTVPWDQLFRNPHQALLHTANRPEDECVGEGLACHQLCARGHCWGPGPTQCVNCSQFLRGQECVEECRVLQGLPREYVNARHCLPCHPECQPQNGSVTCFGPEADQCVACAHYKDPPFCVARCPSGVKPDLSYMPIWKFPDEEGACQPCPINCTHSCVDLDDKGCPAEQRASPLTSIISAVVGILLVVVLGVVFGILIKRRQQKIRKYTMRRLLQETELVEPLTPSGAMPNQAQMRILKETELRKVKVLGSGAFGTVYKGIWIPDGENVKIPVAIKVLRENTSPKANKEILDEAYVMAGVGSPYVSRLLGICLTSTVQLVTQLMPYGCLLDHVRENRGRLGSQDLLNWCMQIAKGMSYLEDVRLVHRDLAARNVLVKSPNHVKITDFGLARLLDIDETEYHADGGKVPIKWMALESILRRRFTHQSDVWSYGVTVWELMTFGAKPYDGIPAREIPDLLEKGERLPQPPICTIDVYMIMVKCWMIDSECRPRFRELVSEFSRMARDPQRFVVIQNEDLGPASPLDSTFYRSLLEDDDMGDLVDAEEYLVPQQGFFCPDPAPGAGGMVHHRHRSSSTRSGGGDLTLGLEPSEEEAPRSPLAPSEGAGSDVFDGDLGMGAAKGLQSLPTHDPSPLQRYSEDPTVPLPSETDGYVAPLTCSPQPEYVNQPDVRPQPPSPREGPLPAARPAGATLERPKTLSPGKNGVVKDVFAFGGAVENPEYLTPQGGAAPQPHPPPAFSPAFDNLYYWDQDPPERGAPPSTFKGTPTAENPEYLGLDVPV

Structure (SMILES) | % enzyme activity (ERBB2/HER2) [%] | remaining activity at 1 µM (LKB1) [%] | % enzyme activity (MST2/STK3) [%] | % enzyme activity (CDK1/cyclin E) [%] | % enzyme activity (PHKg2) [%]
COc1cc(-c2cncc(-c3ccc(N4CCN(C)CC4)cc3)c2C)cc(F)c1C(N)=O [Compound 26a, 2-Fluoro-6-methoxy-4-(4-methyl-5-(4-(4-methylpiperazin-1-yl)phenyl)pyridin-3-yl)benzamide] | 89.07 | 80.7 | 93.91 | 97.19 | 93.32
COc1cc(-c2cncc(-c3ccc(N4C[C@@H](C)N(C)[C@@H](C)C4)cc3)c2C)cc(F)c1C(N)=O [Compound 26c, 2-Fluoro-6-methoxy-4-(4-methyl-5-(4-((3R,5S)-3,4,5-trimethylpiperazin-1-yl)phenyl)pyridin-3-yl)benzamide] | 95.40 | 96.1 | 100.46 | 91.92 | 96.43
